Consider 17 compounds from patent publication US20230399289A1, “ITACONIC ACID DERIVATIVES” (Sitryx Therapeutics Limited, priority 2020, published 2023).

Counter-ions that a name gives are not always drawn.

For data set [1], the system named is hepatocytes. As to the kind of experiment: Hepatocyte stability assay, human. Particulars: 10 μM compound, 0.5×10^6 cells/mL, 60 min. The data set is classed as in vitro ADME. The source says: (§1) Defrosted cryo-preserved hepatocytes (viability>70%) may be used to determine the metabolic stability of a compound via calculation of intrinsic clearance (Clint; a measure of the removal of a compound from the liver in the absence of blood flow and cell binding). Clearance data are particularly important for in vitro work as they can be used in combination with in vivo data to predict the half-life and oral bioavailability of a drug.
(§2) The metabolic stability in hepatocytes assay involves a time-dependent reaction using both positive and negative controls. The cells were pre-incubated at 37° C. and spiked with test compound (and positive control); samples were taken at pre-determined time intervals and analysed to monitor the change in concentration of the initial drug compound over 60 minutes. A buffer incubation reaction (with no hepatocytes present) acted as a negative control and two cocktail solutions, containing compounds with known high and low clearance values (verapamil/7-hydroxycoumarin and propranolol/diltiazem), acted as positive controls. • 1. The assay was run with a cell concentration of 0.5×10^6 cells/mL in Leibovitz buffer. • 2. All compounds and controls were run in duplicate. • 3. Compound concentration was 10 μM. • 4. All compounds and controls were incubated with both cells and buffer to show turnover was due to hepatic metabolism. • 5. All wells on the incubation plate had 326.7 μL of either cells or buffer added. • 6. Prior to assay, cell and buffer-only incubation plates were preincubated for 10 mins at 37° C. • 7. The assay was initiated by adding compounds, 3.3 μL of 1 mM in 10% DMSO-90% Buffer; final DMSO concentration is 0.1%. • 8. Samples were taken at regular timepoints (0, 5, 10, 20, 40, 60 min) until 60 mins. • 9. Sample volume was 40 μL and was added to 160 μL of crash solvent (acetonitrile with internal standard) and stored on ice. • 10. At the end of the assay, the crash plates were centrifuged at 3500 rpm for 20 mins at 4° C. • 11. 80 μL of clear supernatant was removed and mixed with 80 μL of deionised water before being analysed by LC-MS/MS.
(§3) Raw LC-MS/MS data was exported to, and analysed in, Microsoft Excel for determination of intrinsic clearance. The percentage remaining of a compound was monitored using the peak area of the initial concentration as 100%. Intrinsic clearance and half-life values were calculated using a graph of the natural log of percentage remaining versus the time of reaction in minutes. Half-life (min) and intrinsic clearance (Clint in μL min^−1 10^−6 cells) values were calculated using the gradient of the graph (the elimination rate constant, k) and Equations 1 and 2.

For data set [2], the system named is hepatocytes. As to the kind of experiment: Hepatocyte stability assay, mouse. The data set is classed as in vitro ADME. Particulars: 10 μM compound, 0.5×10^6 cells/mL, 60 min.
Description: as §1, §2, §3

In data set [3] the test system is IL-1β cytokine output from THP-1 cells. As to the kind of experiment: THP-1 AlphaLISA IL-1β cytokine assay. Type of data set: cell-based. Particulars: Homo sapiens, THP-1, differentiated THP-1 cells, LPS 24 hr then Nigericin 1 hour. On the procedure:
(§4) Measuring Inhibitory Effects on IL-1β and IL-6 Cytokine Output from THP-1s
(§5) The cytokine inhibition profiles of compounds of formula (I) were determined in a differentiated THP-1 cell assay. All assays were performed in RPMI-1640 growth medium (Gibco), supplemented with 10% fetal bovine serum (FBS; Gibco), 1% penicillin-streptomycin and 1% sodium pyruvate unless specified otherwise. The IL-1β and IL-6 cytokine inhibition assays were each run in a background of differentiated THP-1 cells as described below. All reagents described were from Sigma-Aldrich unless specified otherwise. Compounds were prepared as 10 mM DMSO stocks.
(§6) THP-1 cells were expanded as a suspension up to 80% confluence in appropriate growth medium. Cells were harvested, suspended, and treated with an appropriate concentration of phorbol 12-myristate 13-acetate (PMA) over a 72 hr period (37° C./5% CO2).
(§7) Following 72 hrs of THP-1 cell incubation, cellular medium was removed and replaced with fresh growth media containing 1% of FBS. Working concentrations of compounds were prepared separately in 10% FBS treated growth medium and pre-incubated with the cells for 30 minutes (37° C./5% CO2). Following the 30 minute compound pre-incubation, THP-1s were treated with an appropriate concentration of LPS and the THP-1s were subsequently incubated for a 24 hr period (37° C./5% CO2). An appropriate final concentration of Nigericin was then dispensed into the THP-1 plates and incubated for 1 hour (37° C./5% CO2) before THP-1 supernatants were harvested and collected in separate polypropylene 96-well holding plates.
(§8) Reagents from each of the […] and IL-6 commercial kits (Perkin Elmer) were prepared and run according to the manufacturer's instructions. Subsequently, fluorescence signal detection in a microplate reader was measured (EnVision® Multilabel Reader, Perkin Elmer).
(§9) Percentage inhibition was calculated per cytokine by normalising the sample data to the high and low controls used within each plate (+/−LPS respectively). Percentage inhibition was then plotted against compound concentration and the 50% inhibitory concentration (IC50) was determined from the resultant concentration-response curve.

Data set [4] can be described thus: Hepatocyte stability assay, human. The data set is classed as in vitro ADME. The settings on record: cryopreserved hepatocytes, 10 μM compound, 0.5×10^6 cells/mL, 60 min, read-out: T½.
Description: as §1, §2, §3

A short description of data set [5]: Hepatocyte stability assay, mouse. The data set is classed as in vitro ADME. The settings on record: cryopreserved hepatocytes, 10 μM compound, 0.5×10^6 cells/mL, 60 min, read-out: T½.
Description: as §1, §2, §3

Data set [6] deals with NRF2 (nuclear factor erythroid 2-related factor 2). The data set is described as follows: NRF2 +/−GSH activation assay (DiscoverX PathHunter NRF2 translocation kit, U2OS cells). The settings on record: Homo sapiens; for Emax: U2OS, normalised to dimethyl fumarate high control; for EC50: U2OS PathHunter cells, 6 hours. Type of data set: cell-based.
For data set [7], the system named is IL-6 cytokine output from THP-1 cells. The data set is described as follows: THP-1 AlphaLISA IL-6 cytokine assay. The data set is classed as cell-based. Particulars: Homo sapiens, THP-1, differentiated THP-1 cells, LPS 24 hr then Nigericin 1 hour. The protocol:
as §4, §5, §6, §7, §8, §9
In general terms: In Alpha technology, singlet oxygen from a donor bead excites a nearby acceptor bead.

Where [8] appears, read: +GSH, 30 minute compound-GSH pre-incubation.

`C=C(CC(=O)OCCCCCCCC)C(=O)O` [4-octyl itaconate, reference compound]: the CIint was 401 μL min^−1 10^−6 cells in the data set with hepatocytes [1] and 351 μL min^−1 10^−6 cells in the data set with hepatocytes [2]. In addition, the T½ with hepatocytes [1] and with hepatocytes [2] was 4 min each time.

In general, IC50 refers to the concentration that inhibits the measured activity by half. Read a high IC50 as weaker potency in that assay. Consider `C=C(CC(=O)OC1(c2cccc(Cl)c2Cl)CCC1)C(=O)OCC(=O)O` [Example 7, 2-((4-(1-(2,3-dichlorophenyl)cyclobutoxy)-2-methylene-4-oxobutanoyl)oxy)acetic acid], for which the IC50 in data set [3] came out at 17.4 µM. Further, the CIint came out at 10 μL min^−1 10^−6 cells in the data set on hepatocytes [1] and 107 μL min^−1 10^−6 cells in the data set on hepatocytes [2]. Moreover, the results for the half-life at 10 μM in data set [4] and in data set [5] were 151 min and 18 min, respectively.

As to `C=C(CC(=O)OC1(c2cc(F)c(F)c(F)c2)CCC1)C(=O)OCC(=O)O` [Example 14, 2-((2-methylene-4-oxo-4-(1-(3,4,5-trifluorophenyl)cyclobutoxy)butanoyl)oxy)acetic acid], the IC50 in data set [3] stood at 19.9 µM.

As for `C=C(CC(=O)OC1(c2cc(Cl)cc(C(F)(F)F)c2)CCC1)C(=O)OCC(=O)O` [Example 15, 2-((4-(1-(3-chloro-5-(trifluoromethyl)phenyl)cyclobutoxy)-2-methylene-4-oxobutanoyl)oxy)acetic acid], it took 8.6 µM to reach half-maximal inhibition in data set [3] (IC50).

As for `C=C(CC(=O)OC1(c2ccc(C(F)(F)F)c(Cl)c2)CCC1)C(=O)OCC(=O)O` [Example 16, 2-((4-(1-(3-chloro-4-(trifluoromethyl)phenyl)cyclobutoxy)-2-methylene-4-oxobutanoyl)oxy)acetic acid], the midpoint of inhibition in data set [3], the IC50, lay at 4.9 µM. In addition, the results for the CIint with hepatocytes [1] and in the data set with hepatocytes [2] were 7 μL min^−1 10^−6 cells and 61 μL min^−1 10^−6 cells, respectively. In addition, the results for the half-life at 10 μM in data set [4] and in data set [5] were 209 min and 25 min, respectively.

In the case of `C=C(CC(=O)OC1(c2cc(Cl)c(F)c(Cl)c2)CCC1)C(=O)OCC(=O)O` [Example 17, 2-((4-(1-(3,5-dichloro-4-fluorophenyl)cyclobutoxy)-2-methylene-4-oxobutanoyl)oxy)acetic acid], the IC50 in data set [3] was 4.9 µM. The CIint worked out at 8 μL min^−1 10^−6 cells in the data set on hepatocytes [1] and 73 μL min^−1 10^−6 cells in the data set on hepatocytes [2]. For the same compound, the half-life at 10 μM stood at 188 min in data set [4] and 21 min in data set [5].

As a reminder, the Emax is the size of the effect at its maximum, as opposed to the concentration needed. In general, EC50 refers to the concentration that produces a half-maximal response. Read a low EC50 as higher potency in that assay. In the case of `C=C(CC(=O)OC1(c2ccc(C(F)(F)F)cc2)CCC1)C(=O)O[C@@H](CC(=O)O)C(F)(F)F` [Example 21, (S)-4,4,4-trifluoro-3-((2-methylene-4-oxo-4-(1-(4-(trifluoromethyl)phenyl)cyclobutoxy)butanoyl)oxy)butanoic acid], the Emax in data set [6] (+GSH) came to 53%; in data set [6] (−GSH), 170%. Further, the EC50 is 5.7 µM in data set [6] (setting [8]) and 1.7 µM in data set [6] (−GSH). Moreover, the IC50 in data set [3] was determined as 1 µM; in data set [7], 0.9 µM.

In the case of `C=C(CC(=O)OC1(c2ccc(C(F)(F)F)cc2)CCC1)C(=O)O[C@H](CC(=O)O)C(F)(F)F` [Example 23, (R)-4,4,4-trifluoro-3-((2-methylene-4-oxo-4-(1-(4-(trifluoromethyl)phenyl)cyclobutoxy)butanoyl)oxy)butanoic acid], the Emax in data set [6] (+GSH) was determined as 54%; in data set [6] (−GSH), 141%. Moreover, the EC50 in data set [6] (setting [8]) came to 5.3 µM; in data set [6] (−GSH), 2.3 µM. For the same compound, the IC50 was 1.5 µM in data set [3] and 1.2 µM in data set [7].

With `C=C(CC(=O)OC1(Cc2ccc(Cl)cc2)CCC1)C(=O)OCC(=O)O` [Example 24, 2-((4-(1-(4-chlorobenzyl)cyclobutoxy)-2-methylene-4-oxobutanoyl)oxy)acetic acid], the Emax in data set [6] (+GSH) was 119%; in data set [6] (−GSH), 194%. The EC50 came out at 28.3 µM in data set [6] (setting [8]) and 29.6 µM in data set [6] (−GSH). Besides, the IC50 in data set [3] turned out to be 14.5 µM; in data set [7], 11.3 µM.

Consider `C=C(CC(=O)OC1(c2ccc(C(F)(F)F)cc2)CCCC1)C(=O)OCC(=O)O` [Example 25, 2-((2-methylene-4-oxo-4-((1-(4-(trifluoromethyl)phenyl)cyclopentyl)oxy)butanoyl)oxy)acetic acid], for which the results for the IC50 in data set [3] and in data set [7] were 17.4 µM and 15.9 µM, respectively.

On to `C=C(CC(=O)OC1(c2ccc(-c3ccc(F)cc3)cc2)CCC1)C(=O)OCC(=O)O` [Example 26, 2-((4-(1-(4′-fluoro-[1,1′-biphenyl]-4-yl)cyclobutoxy)-2-methylene-4-oxobutanoyl)oxy)acetic acid], for which the IC50 in data set [3] turned out to be 46.9 µM; in data set [7], 3.9 µM.

`C=C(CC(=O)OC1(Cc2ccc(C(F)(F)F)cc2)CC1)C(=O)OCC(=O)O` [Example 27, 2-((2-methylene-4-oxo-4-(1-(4-(trifluoromethyl)benzyl)cyclopropoxy)butanoyl)oxy)acetic acid]: the IC50 in data set [3] is 16.4 µM; in data set [7] it was 14.1 µM.

With `C=C(CC(=O)OC1(C#Cc2ccc(C(F)(F)F)cc2)CCC1)C(=O)OCC(=O)O` [Example 28, 2-((2-methylene-4-oxo-4-(1-((4-(trifluoromethyl)phenyl)ethynyl)cyclobutoxy)butanoyl)oxy)acetic acid], the IC50 in data set [3] was 11.3 µM; in data set [7] it was 3.3 µM.

With `C=C(CC(=O)OC1(c2ccc(C(F)(F)F)cc2)COC1)C(=O)OCC(=O)O` [Example 29, 2-((2-methylene-4-oxo-4-((3-(4-(trifluoromethyl)phenyl)oxetan-3-yl)oxy)butanoyl)oxy)acetic acid], the figures for the IC50 in data set [3] and in data set [7] were 43.2 µM and 45.2 µM, respectively.

For the compound `C=C(CC(=O)OC1(c2ccc(C(F)(F)F)cc2)CC(F)(F)C1)C(=O)OCC(=O)O` [Example 31, 2-((4-(3,3-difluoro-1-(4-(trifluoromethyl)phenyl)cyclobutoxy)-2-methylene-4-oxobutanoyl)oxy)acetic acid], the values for the Emax in data set [6] (+GSH) and in data set [6] (−GSH) were 108% and 182%, respectively. Moreover, the EC50 in data set [6] (setting [8]) was 30.8 µM; in data set [6] (−GSH), 21.7 µM. The values for the IC50 in data set [3] and in data set [7] were 14.4 µM and 16.5 µM, respectively.

As to `COC(=O)/C=C/C(=O)OC` [dimethyl fumarate, reference compound], the Emax came to 19% in data set [6] (+GSH) and 100% in data set [6] (−GSH). Also, the EC50 in data set [6] (setting [8]) was above 100 µM; in data set [6] (−GSH), 6 µM.

Turning to `C=C(CC(=O)OC)C(=O)OC` [dimethyl itaconate, reference compound], the IC50 in data set [3] and in data set [7] was above 100 µM in each case.
